Laboratory results from US8618169B2, “Derivatives of N-phenylanthranilic acid and 2-benzimidazolone as potassium channel and/or neuron activity modulators” (Ramot at Tel-Aviv University Ltd., priority 2002, dated 2013).

Experiments:
[1] = tested on: F-11 neuronal cells; test: Spiking activity and membrane potential of F-11 neuronal cells, current-clamp; assay type: cell-based; settings: 10 μM
Protocol: F-11 neuronal cells were similarly cultured in F-12 Ham media containing 2 mM 1-glutamine supplemented with 10% fetal bovine serum, HAT supplement and antibiotics.
For current measurements in CHO cells, recordings were performed 40 hours following transfection, using the whole-cell configuration of the patch-clamp technique [Hamill et al., Nature 294: 462-464 (1981)]. Signals were amplified using an Axopatch 200B patch-clamp amplifier (Axon Instruments, Foster City, Calif., USA), sampled at 2 kHz and filtered at 800 Hz via a 4-pole Bessel low pass filter. Data were acquired using pClamp 8.1 software (Axon Instruments, Foster City, Calif., USA) and an Elonex Pentium III computer in conjunction with a DigiData 1322A interface (Axon Instruments, Foster City, Calif., USA). The patch pipettes were pulled from borosilicate glass (Warner Instrument. Corp., Hamden, Conn., USA) with a resistance of 2-5 MΩ and were filled with (in mM): 130 KCl, 1 MgCl2, 5 K2ATP, 5 EGTA, 10 HEPES, adjusted with KOH at pH 7.4 (290 mOsm). The external solution contained (in [mM]): 140 NaCl, 4 KCl, 1.8 CaCl2, 1.2 MgCl2, 11 glucose, 5.5 HEPES, adjusted with NaOH at pH 7.4 (310 mOsm). Series resistances (3-13 MΩ) were compensated (75-90%) and periodically monitored. For current-clamp measurements of rat cortical neurons, recordings were performed 10-14 days after plating, while rat DRG neurons recordings were performed 3 days after plating. The patch pipettes were filled with (in [mM]): 135 KCl, 1 K2ATP, 1 MgATP, 2 EGTA, 1.1 CaCl2, 5 glucose, 10 HEPES, adjusted with KOH at pH 7.4 (315 mOsm). The external solution contained (in [mM]): 140 NaCl, 4 KCl, 2 CaCl2, 2 MgCl2, 5 glucose, 10 HEPES, adjusted with NaOH at pH 7.4 (325 mOsm). For evoking the neuronal action potentials, 50-300 pA currents were injected into the cells for 800 ms (square pulse). Recordings were sampled at 5 kHz and filtered at 2 KHz via a 4-pole Bessel low pass filter. […]

[2] = tested on: COX (Cyclooxygenase); test: COX activity assay in C-26 cells (PGE2 radioimmunoassay); assay type: cell-based
Protocol: C-26 cells were plated on 24-well plates using RPMI medium. Different concentrations of the tested compound were added thereto and the cells were incubated for 30 minutes at 37° C. 30 μM exogenic arachidonic acid was then added and incubation was continued for 20 minutes (37° C.), so as to allow the cells to synthesize PGE2. Indomethacin was added thereafter (10 μM), to stop and completely block the activity. Then, the upper solution was removed into clean 24-wells. To the remained cells 100 μl NaOH (1M) were added to induce cytolysis, and the cells were left for later protein measurement. The solution removed to the new 24-well was used for a radioimmunoassay. The COX activity was estimated by calculating the ng PGE2/mg protein parameter.

## O=C(Cc1ccccc1Nc1c(Cl)cccc1Cl)NCCOCCO [Compound 6]
[1]
  effect on spikes generated in F-11 cells: completely and reversibly blocks
  hyperpolarization of the membrane potential: 9±3 mV
[1]; FIG. 26, from −59 mV
  membrane potential of the F-11 neuronal cell with compound: −67 mV
[2]
  COX inhibition activity (in words): do not exhibit COX inhibition activity
[2]; C-26 cells
  IC50: > 30 µM
[2]; concentration of up to 10 μM
  effect on COX activity: did not block
